Experimental data published in article PMC4757855, “Discovery of high affinity inhibitors of Leishmania donovani N-myristoyltransferase” (Medchemcomm, 2015).
Entries after “also recorded” stand apart in the source; their conditions may differ. Read-outs that look alike come from different tables or passages of the source. Values belong to the molecule of their own block, whether it stands above or below them.

Experiments:
HsNMT1 = target: T1, HsNMT1 (Homo sapiens, UniProt P30419); test: HsNMT1 enzyme assay (CPM fluorescence); type: biochemical; conditions: apparent Ki calculated from IC50 with Cheng–Prusoff equation, read-out: HsNMT Ki
T1 sequence (P30419 1-496): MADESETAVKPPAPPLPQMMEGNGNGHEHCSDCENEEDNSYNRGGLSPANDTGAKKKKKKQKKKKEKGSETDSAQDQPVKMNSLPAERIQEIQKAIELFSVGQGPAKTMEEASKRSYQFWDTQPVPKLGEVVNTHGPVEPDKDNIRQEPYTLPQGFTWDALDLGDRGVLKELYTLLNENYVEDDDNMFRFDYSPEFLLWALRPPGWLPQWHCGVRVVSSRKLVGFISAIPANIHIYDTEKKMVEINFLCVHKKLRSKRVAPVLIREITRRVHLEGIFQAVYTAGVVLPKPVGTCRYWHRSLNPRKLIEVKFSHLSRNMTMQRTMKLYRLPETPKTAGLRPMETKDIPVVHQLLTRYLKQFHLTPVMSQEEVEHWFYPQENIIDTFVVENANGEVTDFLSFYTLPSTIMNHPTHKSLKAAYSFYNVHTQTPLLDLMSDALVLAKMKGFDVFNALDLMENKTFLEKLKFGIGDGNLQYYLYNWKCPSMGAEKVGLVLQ
Method: Enzyme assay information. All IC 50 determinations were carried out using a 7-diethylamine-3-(4’maleimidylphenyl)-4-methylcoumarin (CPM) fluorescence assay, as described by previously. […]
IC 50 of an inhibitor was calculated by a nonlinear regression analysis using GraFit 7.0.1 version (Erithacus Software Limited, UK).The values are the mean […]
(§1) Ki values were calculated from the experimentally determined IC 50 values, the substrate concentration ([S]) and the Michaelis-Menten constant (K m) as described by […]

LdNMT [1] = target: LdNMT (Leishmania donovani, UniProt D0AB09); test: biochemical; type: biochemical; conditions: for Ki: apparent Ki calculated from IC50 with Cheng–Prusoff equation
Chain of LdNMT (Leishmania donovani, UniProt D0AB09) (D0AB09 entry or part of it): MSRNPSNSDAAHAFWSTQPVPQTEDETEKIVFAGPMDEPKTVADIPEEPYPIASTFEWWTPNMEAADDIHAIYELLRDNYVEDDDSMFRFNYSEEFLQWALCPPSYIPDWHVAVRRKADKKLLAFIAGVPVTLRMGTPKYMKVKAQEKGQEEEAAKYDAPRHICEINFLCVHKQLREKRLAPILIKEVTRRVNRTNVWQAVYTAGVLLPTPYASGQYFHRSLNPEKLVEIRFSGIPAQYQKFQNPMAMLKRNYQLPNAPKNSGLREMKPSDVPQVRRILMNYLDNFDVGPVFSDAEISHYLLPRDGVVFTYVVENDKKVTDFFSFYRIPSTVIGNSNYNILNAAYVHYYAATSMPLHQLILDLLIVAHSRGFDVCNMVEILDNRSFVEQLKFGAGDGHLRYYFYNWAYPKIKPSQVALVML
Method: (§2) Enzyme assay information. All IC 50 determinations were carried out using a 7-diethylamine-3-(4’maleimidylphenyl)-4-methylcoumarin (CPM) fluorescence assay, as described by previously. 2–4 The HsNMT1, PfNMT and PvNMT assays are as described in the literature, for LdNMT the final enzyme concentration and peptide substrates are: [LdNMT]: 400 ng/mL; LdNMT Peptide Substrate: Homo sapiens […]
(§3) was 4.0 μM. IC 50 of an inhibitor was calculated by a nonlinear regression analysis using GraFit 7.0.1 version (Erithacus Software Limited, UK).The values are the mean […]
as §1

L. donovani amastigotes = test: L. donovani ex-vivo amastigotes inhibition assay (alamar blue); type: cell-based, Leishmania donovani; conditions: for EC50: Leishmania donovani, ex vivo L. donovani amastigotes, 72 hour incubation, read-out: Ld EC50
Method: L. donovani ex-vivo amastigotes inhibition assay. Assays were carried out as
described by Paape and colleagues.
recorded with a 590nm±10nm bandpass filter, POLARstar Optima). Parasites cultured
[1-(readout-medium)/(positive-medium)] x 100%. Assays were carried out in
Macrophage toxicity test. Assays were carried out as described by Paape and […]

[2] = test system: bone marrow-derived macrophage (BMDM); conditions: 72 h
Method: (§5) colleagues.6 Briefly, bone marrow-derived macrophage (BMDM, 4.2 × 10^4/well of
(§6) 96-well plate ) were incubated at the relevant concentrations of test compounds in
(§7) DMEM medium containing 4% L929 cell and 10% FCS (fetal calf serum). Cells were
(§8) incubated at 37 °C and 5% CO2 for 72 hours. Aalamar blue (10% v/v) was added to
(§9) measuring the fluorescence as described above. Medium without cells containing the
(§10) corresponding concentration of compound was used as a medium control. Assays
were performed in duplicate.

[3] = Stability on incubation over a wide pH range; type: physicochemical; conditions: 37 °C, pH 1–10, 24 hours, data not shown
Description: The binding mode of 10j to Leishmania major NMT (98% sequence identity to LdNMT with closely superimposable ligand binding sites)[14],[29] was confirmed by determination of the crystal structure of the ternary complex of LmNMT, myrisotyl-CoA and 10j (PDB ID:; 5a27). The inhibitor binds in the expected site adjacent to the enzyme's C-terminal carboxylate to which its piperidine forms an ion pairing interaction. This and other key interactions are conserved in a related series in PvNMT.[24] […] This ‘ring opening’ phenomenon has been observed in related compounds within the program,[27] although to our knowledge, it has not been reported elsewhere. The origin of the ring-opened species observed in the crystals remains unclear, and further investigation is underway to determine the cause of this discrepancy (such as potential radiation damage). As characterisation of the compounds was consistent with the proposed oxadiazoles, the development of the series was continued.

[4] = test system: bone marrow-derived macrophage (BMDM); test: Macrophage toxicity test (alamar blue); conditions: top concentration tested 90 μM
Method: as §5, §6, §7, §8, §9, §10
were performed in duplicate.

LdNMT [5] = test: biochemical; type: biochemical
Method: as §2, §3, §1

PfNMT = target: T2, PfNMT (Plasmodium falciparum, UniProt Q9U419); test: biochemical; type: biochemical; conditions: for Ki: apparent Ki calculated from IC50 with Cheng–Prusoff equation; for PfNMT LE: LE = [–log(Ki)](1.374)/(no. of heavy atoms)
T2 sequence (Q9U419 1-410): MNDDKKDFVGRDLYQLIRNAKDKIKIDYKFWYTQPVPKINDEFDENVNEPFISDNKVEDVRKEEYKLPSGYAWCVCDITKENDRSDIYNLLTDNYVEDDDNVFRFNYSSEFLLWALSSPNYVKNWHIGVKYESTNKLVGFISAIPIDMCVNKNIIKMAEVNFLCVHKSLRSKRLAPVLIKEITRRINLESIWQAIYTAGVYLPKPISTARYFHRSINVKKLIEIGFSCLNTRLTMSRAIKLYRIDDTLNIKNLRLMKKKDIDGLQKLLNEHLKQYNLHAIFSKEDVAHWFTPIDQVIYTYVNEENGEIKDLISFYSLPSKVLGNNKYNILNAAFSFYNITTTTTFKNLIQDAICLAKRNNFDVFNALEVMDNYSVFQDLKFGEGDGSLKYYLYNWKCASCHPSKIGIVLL
Method: as §2
(§4) p60src (2-16) with sequence […]-NH 2 and the final concentration was 4.0 μM. IC 50 of an inhibitor was calculated by a nonlinear regression analysis using GraFit 7.0.1 version (Erithacus Software Limited, UK).The values are the mean value of two determinations; standard deviation is within 20% of the IC 50 unless […]
as §1

PvNMT = target: T3, PvNMT (Plasmodium vivax, UniProt A5K1A2); test: biochemical; type: biochemical; conditions: for PvNMT LE: LE = [–log(Ki)](1.374)/(no. of heavy atoms); for Ki: apparent Ki calculated from IC50 with Cheng–Prusoff equation
T3 sequence (A5K1A2 1-410): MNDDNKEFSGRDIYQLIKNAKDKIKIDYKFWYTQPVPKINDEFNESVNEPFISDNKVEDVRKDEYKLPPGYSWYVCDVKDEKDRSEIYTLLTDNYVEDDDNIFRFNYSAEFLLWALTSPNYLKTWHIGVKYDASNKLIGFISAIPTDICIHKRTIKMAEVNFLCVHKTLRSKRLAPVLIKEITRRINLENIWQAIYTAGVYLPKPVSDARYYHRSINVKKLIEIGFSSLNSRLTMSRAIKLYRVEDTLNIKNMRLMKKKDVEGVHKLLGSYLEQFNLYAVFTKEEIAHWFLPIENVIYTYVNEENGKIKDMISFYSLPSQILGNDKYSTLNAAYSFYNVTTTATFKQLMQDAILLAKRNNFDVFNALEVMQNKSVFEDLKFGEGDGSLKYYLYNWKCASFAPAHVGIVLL
Method: as §2, §4, §1

Ki (HsNMT1): 7.23 µM
LdNMT LE (LdNMT [1]): 0.26
Ki (LdNMT [1]; […], read-out: LdNMT Ki): 4.02 µM
Compound: COc1cccc(Cc2noc(-c3cccc(OC)c3OC3CCNCC3)n2)c1 [Compound 10b]

Ki (LdNMT [1]; […], read-out: LdNMT Ki): 3.04 µM
Compound: COc1cccc(Cc2noc(-c3ccc(OC)cc3OC3CCNCC3)n2)c1 [Compound 10e]

EC50 (L. donovani amastigotes): > 50 µM
Ki (LdNMT [1]; […], read-out: LdNMT Ki): 0.01 µM
Compound: Cc1nn(C)c(C)c1Cc1nnc(-c2cc(Cl)ccc2OC2CCNCC2)o1 [Compound 13]
effect against ex vivo amastigotes (L. donovani amastigotes; up to 50 μM): no observed effect; also recorded: failed to inhibit
macrophage toxicity [4]: did not display any macrophage toxicity; also recorded: no macrophage toxicity
Macrophage LD50 [2]: >90 µM

EC50 (L. donovani amastigotes): > 30 µM
Ki (HsNMT1): 1.24 µM
LdNMT LE (LdNMT [1]): 0.37
improvement in LdNMT enzyme affinity (LdNMT [1]; 5 relative to 1, 10a relative to 6): ~ 4 fold
selectivity in favour of the parasite enzyme (LdNMT over HsNMT) (LdNMT [5]): 20 fold
Compound: COc1cccc(Cc2noc(-c3ccccc3OC3CCNCC3)n2)c1 [Compound 10a]

Ki (LdNMT [1]; […], read-out: LdNMT Ki): 0.68 µM
Compound: COc1cccc(Cc2noc(-c3ccc(Br)cc3OC3CCNCC3)n2)c1 [Compound 10h]

Ki (HsNMT1): 7.44 µM
LdNMT LE (LdNMT [1]): 0.29
Ki (LdNMT [1]; […], read-out: LdNMT Ki): 1.43 µM
Compound: COc1cccc(Cc2noc(-c3cccc(C)c3OC3CCNCC3)n2)c1 [Compound 10c]

Ki (HsNMT1): 4.64 µM
LdNMT LE (LdNMT [1]): 0.26
Ki (LdNMT [1]; […], read-out: LdNMT Ki): 5.18 µM
Compound: COc1cccc(Cc2noc(-c3ccc(C)cc3OC3CCNCC3)n2)c1 [Compound 10d]

Ki (LdNMT [1]; […], read-out: LdNMT Ki): 0.24 µM
Compound: COc1cccc(Cc2noc(-c3cc(C)ccc3OC3CCNCC3)n2)c1 [Compound 10i]

Second part, the molecule before the results:

Compound: COc1cccc(Cc2noc(-c3cc(Cl)ccc3OC3CCNCC3)n2)c1 [Compound 10j]
EC50 (L. donovani amastigotes): 6.7 µM
Macrophage LD50 [2]: 18.0 µM
degradation on incubation [3]: no degradation

Compound: COc1cccc(COC(=O)c2sccc2OC2CCNCC2)c1 [Compound 5]
Ki (PfNMT): > 100 µM
PvNMT LE (PvNMT): 0.30
Ki (PvNMT): 6.5 µM
Ki (HsNMT1): > 100 µM
LdNMT LE (LdNMT [1]): 0.35
improvement in LdNMT enzyme affinity (LdNMT [1]): 8 fold
Ki (LdNMT [1]; […], read-out: LdNMT Ki): 0.73 µM
IC50 (LdNMT [1]; experimentally determined, substrate 4.0 μM): 0.82 ± 0.14 µM

Compound: COc1cccc(Cc2noc(-c3ccc(F)cc3OC3CCNCC3)n2)c1 [Compound 10g]
Macrophage LD50 [2]: 29.5 µM

Compound: COc1cccc(Cc2noc(-c3cc(OC)ccc3OC3CCNCC3)n2)c1 [Compound 10k]
EC50 (L. donovani amastigotes): 13.5 µM
Macrophage LD50 [2]: 27.9 µM

Compound: COc1cccc(COC(=O)c2sc3ccccc3c2OC2CCNCC2)c1 [Compound 1]
PfNMT LE (PfNMT): 0.30
Ki (PfNMT): 0.83 µM
PvNMT LE (PvNMT): 0.35
Ki (PvNMT): 0.08 µM
Ki (HsNMT1): 3.2 µM
Ki (LdNMT [1]; […], read-out: LdNMT Ki): 5.82 µM

Compound: COc1cccc(COC(=O)c2ccccc2OC2CCNCC2)c1 [Compound 6]
PfNMT LE (PfNMT): 0.29
Ki (PfNMT): 6 µM
PvNMT LE (PvNMT): 0.31
Ki (PvNMT): 2.42 µM
Ki (HsNMT1): > 100 µM
LdNMT LE (LdNMT [1]): 0.36
Ki (LdNMT [1]; […], read-out: LdNMT Ki): 0.28 µM
